Our source for the IC50 values is patent US20200069648A1, “HALOALLYLAMINE PYRAZOLE DERIVATIVE INHIBITORS OF LYSYL OXIDASES AND USES THEREOF” (Pharmaxis Ltd., priority 2017, published 2020).

pIC50: −log10 of the molar value. Structures can show the parent of a compound that is named as a salt.

In assay [1] the target is T1, Bovine LOX (Bos taurus, UniProt P33072).
T1 sequence (P33072 170-418): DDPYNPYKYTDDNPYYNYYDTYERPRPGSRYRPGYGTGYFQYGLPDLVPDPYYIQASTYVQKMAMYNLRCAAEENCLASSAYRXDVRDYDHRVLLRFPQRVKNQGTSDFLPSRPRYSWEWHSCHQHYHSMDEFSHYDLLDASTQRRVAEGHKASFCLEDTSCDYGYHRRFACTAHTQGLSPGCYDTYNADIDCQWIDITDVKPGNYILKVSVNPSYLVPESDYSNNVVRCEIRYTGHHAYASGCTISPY
The assay is described as follows: LOX amine oxidase inhibition, peroxidase-coupled Amplex Red assay. Type of assay: biochemical. The following applies: 30 min preincubation at 37° C., putrescine substrate. An outline of the steps:
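Bovine LOX in 1.2 M urea, 50 mM sodium borate pH 8.2 […]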

For assay [2], the target named is T2, human recombinant SSAO/VAP-1 (Homo sapiens, UniProt Q16853).
T2 construct: a cloned cDNA template corresponding to residues 34-763 of human SSAO/VAP-1; TEV cleavage site (N); made in house
T2 sequence (Q16853 34-763): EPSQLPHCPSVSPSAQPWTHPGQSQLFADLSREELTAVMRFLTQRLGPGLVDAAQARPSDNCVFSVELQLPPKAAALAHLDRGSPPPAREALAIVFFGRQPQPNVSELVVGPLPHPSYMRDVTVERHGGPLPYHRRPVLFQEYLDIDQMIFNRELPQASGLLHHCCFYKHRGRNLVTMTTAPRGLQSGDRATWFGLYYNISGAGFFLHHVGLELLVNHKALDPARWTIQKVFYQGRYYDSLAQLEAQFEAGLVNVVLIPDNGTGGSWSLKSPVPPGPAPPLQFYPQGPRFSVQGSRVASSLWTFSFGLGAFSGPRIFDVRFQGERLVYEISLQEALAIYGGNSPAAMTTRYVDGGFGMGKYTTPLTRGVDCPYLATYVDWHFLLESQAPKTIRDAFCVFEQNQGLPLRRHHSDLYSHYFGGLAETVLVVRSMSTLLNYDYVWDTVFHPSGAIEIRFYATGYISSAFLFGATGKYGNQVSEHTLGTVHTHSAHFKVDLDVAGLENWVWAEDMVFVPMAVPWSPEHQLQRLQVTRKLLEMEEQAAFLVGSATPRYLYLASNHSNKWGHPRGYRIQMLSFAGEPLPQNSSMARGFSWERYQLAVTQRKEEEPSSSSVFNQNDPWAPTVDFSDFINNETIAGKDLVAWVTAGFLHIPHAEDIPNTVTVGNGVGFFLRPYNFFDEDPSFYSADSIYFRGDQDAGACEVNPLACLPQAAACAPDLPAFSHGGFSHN
Briefly: Human recombinant SSAO/VAP-1 amine oxidase inhibition. Type of assay: biochemical. Conditions: 30 min preincubation at 37° C., 600 μM benzylamine. The method, then:
Method to Determine the Ability of Compounds of Formula I to Inhibit Human Recombinant SSAO/VAP-1
Human recombinant SSAO/VAP-1 amine oxidase activity was determined using the coupled colorimetric method as described for monoamine oxidase, copper-containing amine oxidases and related enzymes (Holt A. and Palcic M., A peroxidase-coupled continuous absorbance plate-reader assay for flavin monoamine oxidases, copper-containing amine oxidases and related enzymes. Nat Protoc 2006; 1: 2498-2505). Briefly, a cloned cDNA template corresponding to residues 34-763 of human SSAO/VAP-1, and incorporating a mouse Ig kappa (κ) signal sequence, N-terminal flag epitope tag and tobacco etch virus (TEV) cleavage site, was assembled in a mammalian expression vector (pLO-CMV) by Geneart AG. This vector containing human SSAO/VAP-1 residues was transfected into CHO-K1 glycosylation mutant cell line, Lec 8. A clone stably expressing human SSAO/VAP-1 was isolated and cultured in large scale. Active human SSAO/VAP-I was purified and recovered using immunoaffinity chromatography. This was used as the source for SSAO/VAP-1 activity. A high-throughput colorimetric assay was developed using either 96 or 384 well format. Briefly, in a standard 96 well plate assay 50 μL of purified human SSAO/VAP-1 (0.25 μg/mL) in 0.1 M sodium phosphate buffer (pH 7.4) was added into each well. Test compounds were dissolved in DMSO and tested in a Concentration Response Curve (CRC) with 4-11 data points, typically in the micromolar or nanomolar range after incubation with human SSAO/VAP-1 for 30 min at 37° C. After 30 min incubation, 50 μL of the reaction mixture containing 600 μM benzylamine (Sigma Aldrich), 120 μM Amplex Red (Sigma Aldrich) and 1.5 U/mL horseradish peroxidase (Sigma Aldrich) prepared in 0.1 M sodium phosphate buffer (pH 7.4) were added to the corresponding well. The fluorescence unit (RFU) was read every 2.5 min for 30 min at 37° C. excitation 565 nm and emission 590 (Optima; BMG labtech). The slope of the kinetics for each well was calculated using MARS data analysis software (BMG labtech) and this value was used to deduce the IC50 value (Dotmatics).

As for `CNS(=O)(=O)c1ccc(Cn2nc(C)c(C/C(F)=C/CN)c2C)c(C(F)(F)F)c1` [Compound 23, (Z)-4-((4-(4-amino-2-fluorobut-2-en-1-yl)-3,5-dimethyl-1H-pyrazol-1-yl)methyl)-N-methyl-3-(trifluoromethyl)benzenesulfonamide hydrochloride], the pIC50 in assay [1] was over 5.00; in assay [2] it was under 4.52.

What is called pIC50 is the negative decadic logarithm of the IC50, by convention in mol/L.
